Results taken from PMC3341351, “Down-Regulation of GABAA Receptor via Promiscuity with the Vasoactive Peptide Urotensin II Receptor. Potential Involvement in Astrocyte Plasticity” (PLoS ONE, 2012).

Columns and labels:
[1] = system: GABAAR co-expressed with UT^HA 351, UT^HA 332 or UT^HA 319; assay: Patch-clamp of Iso-evoked current in CHO co-expressing GABAAR and shorter truncated UT (UT^HA 351, UT^HA 332, UT^HA 319); type: cell-based; details: hUII 10^−8 M, 1 min; Iso 10^−4 M, 2 s
Text: For UT epitope-tagged with HA (UT^HA), or c-myc (UT^c-myc), human UT receptor cDNA inserted into pcDNA3.1 (Ressource Center, MI, USA) was amplified and PCR products were subcloned using the EcoRI and XhoI sites of pCMV-HA or pCMV-c-myc. Mutant UT receptor cDNAs were constructed by oligonucleotide-directed mutagenesis (Expand High Fidelity PCR System; Roche) using the human UT receptor cDNA inserted into pcDNA3.1 as a template. Two sets of forward and reverse oligonucleotides were used (Table S2) to introduce stop codons in frame of Leu370, Phe351, Gly332 and Thr319 (to generate UT371, UT351, UT332 and UT319, respectively). PCR products were subcloned using the EcoRI and XhoI sites of pCMV-HA after digestion by the same restriction enzymes. Mutagenesis was confirmed by automated nucleotide sequencing.
The conventional whole-cell configuration of the patch-clamp technique was used to study the GABA-gated currents in astrocytes and granule neurons, UT stably transfected CHO, CHO-UT, and CHO transiently transfected with diverse variants of UT and GABAAR subunits. After 24-h transfection, cell culture coverslips were placed in a small chamber (1.5 ml) on a stage of a right microscope DMLFSA (Leica, Heidelberg, Germany) and superfused continuously with the following bath solution containing (in mM): NaCl, 150; KCl, 2.5; HEPES, 5; CaCl2, 2; MgCl2, 1; glucose, 10 (pH 7.4 adjusted with NaOH). […]

[2] = system: α2β3 GABAAR co-expressed with human UT; assay: Patch-clamp of Iso-evoked current in CHO-UT expressing α2β3 GABAAR; type: cell-based; details: hUII 10^−13 to 10^−7 M; Iso 10^−4 M, 2 s; −60 mV
Procedure: CHO-K1 cell lines were obtained from American Type Culture Collection (Manassas, VA, USA). The human UT stable CHO (CHO-UT) was generously provided by Dr Christophe Dubessy (Inserm, Rouen University, France) et generated by CHO electroporation with 20 µg pIRES-neo2-UT DNA and 500 µg sterile sonicated salmon sperm DNA using the EasyJect One electroporation system (Equibio, Angleur, Belgium), followed by repetitive rounds of limiting dilution of cells in G-418 (400 µg/ml) for selection. Normal or stable CHO was grown in Ham-F12 medium supplemented with 10% FBS, 1% antibiotic-antimicotic solution and 2 mM glutamine, at 37°C in a humidified incubator with an atmosphere of 5% CO2. The stable CHO-UT medium was supplemented with the antibiotic G-418 (40 µg/ml).
For transfection, cells were trypsinized (0.05%), triturated in HamF-12 containing 10% FBS media, pelleted by centrifugation, resuspended in 100 µl solution V for nucleofection by an Amaxa Nucleofector Device (Köln, Germany; set to program U-016). Experiments were performed on normal CHO or on the stable CHO-UT cells and transiently transfected with combinations of cDNA encoding α2β3γ2, α2β3γ1, α2β1γ2, α2β3γ1, α2β3, β3γ2 (4 µg of cDNA total/transfection) GABAAR subunits. Cells were seeded on 14-mm poly-L-lysine-coated glass bottom insert dishes at 5×10^5 cells in a volume of 0.5 ml/dish. […]

Sequence: ETPDCFWKYCV (disulfide) [hUII, human urotensin II, synthesized by solid phase methodology]
- hUII effect on GABAAR activity with shorter truncated UT forms [1]: totally failed to alter the GABAAR activity
- Inhibitory effect on Iso-evoked current, α2β3 [2]: totally ineffective
